{
  "source": "paper PMC2665923",
  "about": "(Journal of medicinal chemistry, 2009)",
  "key": {"[1]": {"test": "Storage stability at rt", "format": "physicochemical", "settings": "few weeks at rt"}, "[2]": {"tested_on": "NFκB-mediated expression of XIAP", "test": "Western immunoblot of XIAP expression", "format": "cell-based", "settings": "BXPC3; 5 and 26 at 5 μM; 27 up to 20 μM"}, "[3]": {"tested_on": "GSK-3β activity (phosphorylation of glycogen synthase)", "test": "Western immunoblot of glycogen synthase phosphorylation in cells", "format": "cell-based", "settings": "BXPC3, 5 and 26 at 5 μM, 6-36 h, 27 at 5, 10, 20 μM"}, "[4]": {"tested_on": "pancreatic cancer cells (MiaPaCa-2, BXPC3, HupT3)", "test": "Pancreatic cancer cell proliferation", "format": "cell-based", "settings": "for antiproliferative activity in pancreatic cancer cells: MiaPaCa-2, BXPC3, HupT3"}, "[5]": {"tested_on": "BXPC3 and HupT3 pancreatic cancer cells", "test": "Apoptosis by Hoechst staining", "format": "cell-based", "settings": "5 (5 μM), 26 (5 μM), 27 (20 μM), 36 h"}, "[6]": {"tested_on": "pancreatic cancer cells (MiaPaCa-2, BXPC3, HupT3)", "settings": "BXPC3, HupT3 and MiaPaCa-2; shown earlier; cited from earlier work"}},
  "note": "“Also recorded” adds a separate entry of the source.",
  "data": [
    {"compound": "Cn1cc(C2=C(c3coc4cc(O)ccc34)C(=O)NC2=O)c2cc(F)ccc21", "note": "[Compound 4, 3-(5-Fluoro-1-methyl-1H-indol-3-yl)-4-(6-hydroxy-benzofuran-3-yl)-pyrrole-2,5-dione]", "values": [
      {"measurement": "stability on storage", "setting": "[1]", "value": "Partially degradated after few weeks at rt"}
    ]},
    {"compound": "COc1cccc2c(C3=C(c4cn(C)c5cc(I)c(F)cc45)C(=O)NC3=O)coc12", "note": "[Compound 5, 3-(5-Fluoro-6-iodo-1-methyl-1H-indol-3-yl)-4-(7-methoxy-benzofuran-3-yl)-pyrrole-2,5-dione]", "values": [
      {"measurement": "NFκB-mediated expression of XIAP", "setting": "[2]", "value": "pronounced decrease"},
      {"measurement": "GSK-3β activity in cells (GS phosphorylation)", "setting": "[3]", "value": "effectively inhibited"},
      {"measurement": "antiproliferative activity in pancreatic cancer cells", "setting": "[4]", "value": "good antiproliferative activity"},
      {"measurement": "concentrations showing significant anticancer activity", "setting": "[4]; pancreatic cancer cells", "value": "1 to 5", "unit": "µM"},
      {"measurement": "apoptosis / survival of pancreatic cancer cells", "setting": "[5]", "value": "significant apoptosis"}
    ]},
    {"compound": "Cn1cc(C2=C(c3coc4ccccc34)C(=O)NC2=O)c2cc(F)c(Cl)cc21", "note": "[Compound 6, 3-Benzofuran-3-yl-4-(6-chloro-5-fluoro-1-methyl-1H-indol-3-yl)-pyrrole-2,5-dione]", "values": [
      {"measurement": "antiproliferative activity in pancreatic cancer cells", "setting": "[4]", "value": "good antiproliferative activity"}
    ]},
    {"compound": "COc1cccc2c(C3=C(c4cn(C)c5cc(Cl)c(F)cc45)C(=O)NC3=O)coc12", "note": "[Compound 11, 3-(6-Chloro-5-fluoro-1-methyl-1H-indol-3-yl)-4-(7-methoxy-benzofuran-3-yl)-pyrrole-2,5-dione]", "values": [
      {"measurement": "antiproliferative activity in pancreatic cancer cells", "setting": "[4]", "value": "good antiproliferative activity"}
    ]},
    {"compound": "Cn1cc(C2=C(c3coc4ccccc34)C(=O)NC2=O)c2cc(Br)ccc21", "note": "[Compound 13]", "values": [
      {"measurement": "antiproliferative activity in pancreatic cancer cells", "setting": "[4]", "value": "little or no inhibitory activity"}
    ]},
    {"compound": "C#CCOc1ccc2c(C3=C(c4cn(C)c5ccc(Br)cc45)C(=O)NC3=O)coc2c1", "note": "[Compound 16, 3-(5-Bromo-1-methyl-1H-indol-3-yl)-4-(6-prop-2-ynyloxy-benzofuran-3-yl)-pyrrole-2,5-dione]", "values": [
      {"measurement": "stability on storage", "setting": "[1]", "value": "Partially degradated after few weeks at rt"}
    ]},
    {"compound": "COc1cccc2c(C3=C(c4cn(C)c5c(Br)cc(Br)cc45)C(=O)NC3=O)coc12", "note": "[Compound 20, 3-(5,7-Dibromo-1-methyl-1H-indol-3-yl)-4-(7-methoxy-benzofuran-3-yl)-pyrrole-2,5-dione]", "values": [
      {"measurement": "antiproliferative activity in pancreatic cancer cells", "setting": "[4]", "value": "good antiproliferative activity"}
    ]},
    {"compound": "Cn1cc(C2=C(c3coc4ccccc34)C(=O)NC2=O)c2cc(I)ccc21", "note": "[Compound 21, 3-Benzofuran-3-yl-4-(5-iodo-1-methyl-1H-indol-3-yl)-pyrrole-2,5-dione]", "values": [
      {"measurement": "antiproliferative activity in pancreatic cancer cells", "setting": "[4]", "value": "little or no inhibitory activity"}
    ]},
    {"compound": "Cn1cc(C2=C(c3coc4ccc(F)cc34)C(=O)NC2=O)c2cc(I)ccc21", "note": "[Compound 22, 3-(5-Fluoro-benzofuran-3-yl)-4-(5-iodo-1-methyl-1H-indol-3-yl)-pyrrole-2,5-dione]", "values": [
      {"measurement": "antiproliferative activity in pancreatic cancer cells", "setting": "[4]", "value": "little or no inhibitory activity"}
    ]},
    {"compound": "Cn1cc(C2=C(c3coc4ccc(F)cc34)C(=O)NC2=O)c2cc(C#CC3CC3)ccc21", "note": "[Compound 25, 3-(5-Cyclopropylethynyl-1-methyl-1H-indol-3-yl)-4-(5-fluoro-benzofuran-3-yl)-pyrrole-2,5-dione]", "values": [
      {"measurement": "antiproliferative activity in pancreatic cancer cells", "setting": "[4]", "value": "little or no inhibitory activity"}
    ]},
    {"compound": "Cn1cc(C2=C(c3coc4ccc(F)cc34)C(=O)NC2=O)c2cc3c(cc21)OCO3", "note": "[Compound 26, 3-(5-Fluoro-benzofuran-3-yl)-4-(5-methyl-5H-[1,3]dioxolo[4,5-f]indol-7-yl)-pyrrole-2,5-dione]", "values": [
      {"measurement": "NFκB-mediated expression of XIAP", "setting": "[2]", "value": "pronounced decrease"},
      {"measurement": "GSK-3β activity in cells (GS phosphorylation)", "setting": "[3]", "value": "effectively inhibited"},
      {"measurement": "antiproliferative activity in pancreatic cancer cells", "setting": "[4]", "value": "good antiproliferative activity"},
      {"measurement": "apoptosis / survival of pancreatic cancer cells", "setting": "[5]", "value": "significant apoptosis"}
    ]},
    {"compound": "COc1cc2c(C3=C(c4coc5ccccc45)C(=O)NC3=O)cn(C)c2cc1Cl", "note": "[Compound 27, 3-Benzofuran-3-yl-4-(6-chloro-5-methoxy-1-methyl-1H-indol-3-yl)-pyrrole-2,5-dione]", "values": [
      {"measurement": "NFκB-mediated expression of XIAP", "setting": "[2]", "value": "no such effect"},
      {"measurement": "GSK-3β activity in cells (GS phosphorylation)", "setting": "[3]", "value": "did not affect"},
      {"measurement": "antiproliferative activity in pancreatic cancer cells", "setting": "[4]", "value": "did not affect; also recorded: little or no inhibitory activity"},
      {"measurement": "apoptosis / survival of pancreatic cancer cells", "setting": "[5]", "value": "did not affect"}
    ]},
    {"compound": "COCc1cccc2c(C3=C(c4coc5ccccc45)C(=O)NC3=O)cn(C)c12", "note": "[Compound 33, 3-Benzofuran-3-yl-4-(7-methoxymethyl-1-methyl-1H-indol-3-yl)-pyrrole-2,5-dione]", "values": [
      {"measurement": "antiproliferative activity in pancreatic cancer cells", "setting": "[4]", "value": "little or no inhibitory activity"}
    ]},
    {"compound": "COc1ccc(CNC(=O)Nc2ncc([N+](=O)[O-])s2)cc1", "note": "[Compound 77]", "values": [
      {"measurement": "pancreatic cancer cell proliferation", "setting": "[6]", "value": "significant decrease"}
    ]},
    {"compound": "Cn1cc(C2=C(c3ccc(Cl)cc3Cl)C(=O)NC2=O)c2ccccc21", "note": "[Compound 78]", "values": [
      {"measurement": "pancreatic cancer cell proliferation", "setting": "[6]", "value": "significant decrease"}
    ]}
  ]
}
